This test addresses USP1 (construct USP1 (I-785, GG670, 671AA)/UAF1 (I-677)-Flag) (Homo sapiens (Human), UniProt O94782, G670A/G671A). Description: Ubiquitin-Rhodamine 110 assay for USP1 activity. In kind it is biochemical. As to conditions: USP1/UAF1 25 pM, Ub-Rh110 25 nM, 30 min preincubation. The gist of the method: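 Two formats with the USP1/UAF1 complex and 25 nM ubiquitin-rhodamine 110 in pH 8.0 Tris buffer with calcium, glutathione and detergent. Single-point screening used 10 µM, 100 pM enzyme and 45 min. Inhibition was set against no-enzyme and DMSO wells.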

SMILES strings stand for the structures.

The text below walks through data of patent publication US10189841B2, “Purinones as ubiquitin-specific protease 1 inhibitors” (Forma Therapeutics, Inc., priority 2015, dated 2019).

Sequence of USP1 (construct USP1 (I-785, GG670, 671AA)/UAF1 (I-677)-Flag) (O94782 whole entry G670A/G671A): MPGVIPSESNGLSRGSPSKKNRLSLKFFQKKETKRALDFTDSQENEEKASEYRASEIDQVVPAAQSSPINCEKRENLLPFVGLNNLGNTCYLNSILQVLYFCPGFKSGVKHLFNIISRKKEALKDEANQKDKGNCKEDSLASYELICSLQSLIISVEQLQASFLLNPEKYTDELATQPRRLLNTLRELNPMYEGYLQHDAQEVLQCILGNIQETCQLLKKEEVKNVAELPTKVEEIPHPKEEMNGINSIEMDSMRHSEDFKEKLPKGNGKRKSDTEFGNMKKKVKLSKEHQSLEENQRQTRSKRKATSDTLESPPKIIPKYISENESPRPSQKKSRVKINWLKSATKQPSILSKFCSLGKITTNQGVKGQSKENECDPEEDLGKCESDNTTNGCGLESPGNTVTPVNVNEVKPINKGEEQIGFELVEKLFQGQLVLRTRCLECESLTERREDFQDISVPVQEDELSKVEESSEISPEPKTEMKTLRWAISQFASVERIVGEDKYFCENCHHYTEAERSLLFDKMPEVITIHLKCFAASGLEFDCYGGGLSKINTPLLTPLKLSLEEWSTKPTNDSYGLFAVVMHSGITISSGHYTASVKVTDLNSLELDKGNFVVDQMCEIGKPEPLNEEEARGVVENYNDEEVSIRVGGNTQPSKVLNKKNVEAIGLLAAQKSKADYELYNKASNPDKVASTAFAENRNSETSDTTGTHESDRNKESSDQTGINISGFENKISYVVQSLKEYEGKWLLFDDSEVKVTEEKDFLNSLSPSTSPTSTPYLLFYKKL
Sequence of USP1 (construct USP1 (I-785, GG670, 671AA)/UAF1 (I-677)-Flag) (Q8TAF3 whole entry partner): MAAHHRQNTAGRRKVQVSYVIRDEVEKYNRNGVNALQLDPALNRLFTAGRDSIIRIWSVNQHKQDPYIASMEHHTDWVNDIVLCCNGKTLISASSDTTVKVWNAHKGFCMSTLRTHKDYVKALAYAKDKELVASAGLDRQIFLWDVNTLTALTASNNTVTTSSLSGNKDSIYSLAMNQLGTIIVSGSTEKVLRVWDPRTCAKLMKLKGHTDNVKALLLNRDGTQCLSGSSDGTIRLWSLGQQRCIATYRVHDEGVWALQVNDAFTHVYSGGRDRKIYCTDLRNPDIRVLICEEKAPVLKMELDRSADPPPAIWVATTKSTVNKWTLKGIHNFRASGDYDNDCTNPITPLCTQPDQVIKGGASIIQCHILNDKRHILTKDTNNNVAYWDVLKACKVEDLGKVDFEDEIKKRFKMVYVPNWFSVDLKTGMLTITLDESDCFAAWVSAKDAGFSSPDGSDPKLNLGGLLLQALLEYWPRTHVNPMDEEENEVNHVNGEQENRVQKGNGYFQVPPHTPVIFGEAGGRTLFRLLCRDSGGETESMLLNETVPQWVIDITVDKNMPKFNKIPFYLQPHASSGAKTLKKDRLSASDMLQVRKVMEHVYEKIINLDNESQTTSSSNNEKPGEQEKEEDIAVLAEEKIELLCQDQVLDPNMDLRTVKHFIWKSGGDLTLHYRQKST

For orientation: IC50 means the concentration needed to halve the response being measured. Low readings indicate higher potency, high ones lower potency. In turn, `CC(C)c1ncccc1-c1ncc2[nH]c(=O)n(Cc3ccc(-n4ccc(F)n4)cc3)c2n1` [Compound I-59, 9-(4-(3-fluoro-1H-pyrazol-1-yl)benzyl)-2-(2-isopropylpyridin-3-yl)-7,9-dihydro-8H-purin-8-one] had an IC50 of 0.05 to 0.2 µM.

Consider `CC(C)c1ccccc1-c1ncc2[nH]c(=O)n(Cc3ccc(C(=O)N(C)C)cc3)c2n1` [Compound I-355, 4-((2-(2-isopropylphenyl)-8-oxo-7,8-dihydro-9H-purin-9-yl)methyl)-N,N-dimethylbenzamide], for which the IC50 is < 0.05 µM.

Molecule `CC(C)c1c(F)cccc1-c1ncc2[nH]c(=O)n(Cc3ccc(-n4ncc5c4CNC5)cc3)c2n1` [Compound I-103, 9-(4-(5,6-dihydropyrrolo[3,4-c]pyrazol-1(4H)-yl)benzyl)-2-(3-fluoro-2-isopropylphenyl)-7,9-dihydro-8H-purin-8-one] had an IC50 of 0.05 to 0.2 µM.

`CC(C)c1ccccc1-c1ncc2c(n1)n(CC1CCN(S(=O)(=O)C(C)C)CC1)c(=O)n2C` [Compound I-450, 2-(2-isopropylphenyl)-9-((1-(isopropylsulfonyl)piperidin-4-yl)methyl)-7-methyl-7,9-dihydro-8H-purin-8-one] showed an IC50 of 0.05 to 0.2 µM.

For the molecule `CC(C)c1ccccc1-c1ncc2[nH]c(=O)n(Cc3ccc(-c4cn(C)cn4)cc3)c2n1` [Compound I-273, 2-(2-isopropylphenyl)-9-(4-(1-methyl-1H-imidazol-4-yl)benzyl)-7,9-dihydro-8H-purin-8-one], the IC50 is < 0.05 µM.

Turning to `CCOc1ncccc1-c1ncc2[nH]c(=O)n(Cc3ccc(-c4nc(C(F)(F)F)cn4C)cc3)c2n1` [Compound I-421, 2-(2-ethoxypyridin-3-yl)-9-(4-(1-methyl-4-(trifluoromethyl)-1H-imidazol-2-yl)benzyl)-7,9-dihydro-8H-purin-8-one], the IC50 was < 0.05 µM.

For the molecule `Cc1nc(S(=O)(=O)N(C)c2ccc(Cn3c(=O)n(C)c4cnc(-c5ccccc5C(C)C)nc43)cc2)cn1C` [Compound I-458, N-(4-((2-(2-isopropylphenyl)-7-methyl-8-oxo-7,8-dihydro-9H-purin-9-yl)methyl)phenyl)-N,1,2-trimethyl-1H-imidazole-4-sulfonamide], the IC50 was 0.2 to 2 µM.

As to `CC(C)c1cccc(F)c1-c1ncc2c(n1)n(Cc1ccc(-n3cccn3)cc1)c(=O)n2C` [Compound I-11, 9-(4-(1H-pyrazol-1-yl)benzyl)-2-(2-fluoro-6-isopropylphenyl)-7-methyl-7,9-dihydro-8H-purin-8-one], the IC50 is < 0.05 µM.

`CC(C)c1ccccc1-c1ncc2[nH]c(=O)n(Cc3ccc(-n4cc(C(C)(C)O)nn4)cc3)c2n1` [Compound I-345, 9-(4-(4-(2-hydroxypropan-2-yl)-1H-1,2,3-triazol-1-yl)benzyl)-2-(2-isopropylphenyl)-7,9-dihydro-8H-purin-8-one] displayed an IC50 of 0.2 to 2 µM.

Molecule `CC(=O)N1CCN(C(=O)c2ccc(Cn3c(=O)[nH]c4cnc(-c5ccccc5C(C)C)nc43)cc2)CC1` [Compound I-383, 9-(4-(4-acetylpiperazine-1-carbonyl)benzyl)-2-(2-isopropylphenyl)-7,9-dihydro-8H-purin-8-one] registered an IC50 of 0.2 to 2 µM.

Turning to `CC(C)c1ccccc1-c1ncc2c(n1)n(Cc1ccc(-c3cn(C)cn3)cc1)c(=O)n2C` [Compound I-271, 2-(2-isopropylphenyl)-7-methyl-9-(4-(1-methyl-1H-imidazol-4-yl)benzyl)-7,9-dihydro-8H-purin-8-one], the IC50 is < 0.05 µM.

`CC(C)c1ccccc1-c1ncc2c(n1)n(Cc1ccc(NC(=O)NC3CC3)cc1)c(=O)n2C` [Compound I-483, 1-cyclopropyl-3-(4-((2-(2-isopropylphenyl)-7-methyl-8-oxo-7,8-dihydro-9H-purin-9-yl)methyl)phenyl)urea] returned an IC50 of 0.2 to 2 µM.

Regarding `CC(Oc1ncccc1-c1ncc2[nH]c(=O)n(Cc3ccc(-c4nc(C(F)(F)F)cn4C)cc3)c2n1)C(F)(F)F` (stereo not shown) [Compound I-418, 9-(4-(1-methyl-4-(trifluoromethyl)-1H-imidazol-2-yl)benzyl)-2-(2-((1,1,1-trifluoropropan-2-yl)oxy)pyridin-3-yl)-7,9-dihydro-8H-purin-8-one], the IC50 was < 0.05 µM.
